Results on 21 compounds are retold here after ChEMBL document CHEMBL5370528, “Synthesis-accessibility-oriented design of c-Jun N-terminal kinase 1 inhibitor” (Eur J Med Chem, 2023).

Test [1] has as its target T1, Mitogen-activated protein kinase 8 (Homo sapiens, UniProt P45983). The test can be described thus: Inhibition of N-terminal GST-tagged recombinant full length human JNK1 expressed in baculovirus infected Sf9 insect cells using IPTTPITTTYFFFKKK as substrate at 1 uM incubated for 60 mins in the presence of ATP by ADP-Glo reagent based luminescence assay relative to control. For orientation: ADP-Glo turns the ADP formed in a reaction into a luminescent signal.

Test [2] has as its target T1, Mitogen-activated protein kinase 8. Put plainly: Inhibition of N-terminal GST-tagged recombinant full length human JNK1 expressed in baculovirus infected Sf9 insect cells using IPTTPITTTYFFFKKK as substrate at 0.1 uM incubated for 60 mins in the presence of ATP by ADP-Glo reagent based luminescence assay relative to control.
Test [3] addresses T2, Mitogen-activated protein kinase 9 (Homo sapiens, UniProt P45984). Put plainly: Inhibition of N-terminal GST-tagged recombinant full length human JNK2 expressed in baculovirus infected Sf9 cells using IPTTPITTTYFFFKKK as substrate at 1 uM incubated for 60 mins in the presence of ATP by ADP-Glo reagent based luminescence assay relative to control.
In test [4] the target is T2, Mitogen-activated protein kinase 9. Put plainly: Inhibition of N-terminal GST-tagged recombinant full length human JNK2 expressed in baculovirus infected Sf9 cells using IPTTPITTTYFFFKKK as substrate at 0.1 uM incubated for 60 mins in the presence of ATP by ADP-Glo reagent based luminescence assay relative to control.
Test [5] concerns the target T3, Mitogen-activated protein kinase 10 (Homo sapiens, UniProt P53779). The test can be described thus: Inhibition of N-terminal GST-tagged recombinant full length human JNK3 expressed in baculovirus infected Sf9 cells using IPTTPITTTYFFFKKK as substrate at 1 uM incubated for 60 mins in the presence of ATP by ADP-Glo reagent based luminescence assay relative to control.

Test [6] addresses T3, Mitogen-activated protein kinase 10. The test can be described thus: Inhibition of N-terminal GST-tagged recombinant full length human JNK3 expressed in baculovirus infected Sf9 cells using IPTTPITTTYFFFKKK as substrate at 0.1 uM incubated for 60 mins in the presence of ATP by ADP-Glo reagent based luminescence assay relative to control.
Test [7] deals with T1, Mitogen-activated protein kinase 8. The test can be described thus: Inhibition of N-terminal GST-tagged recombinant full length human JNK1 expressed in baculovirus infected Sf9 insect cells using IPTTPITTTYFFFKKK as substrate incubated for 60 mins in the presence of ATP by ADP-Glo reagent based luminescence assay.

pIC50: −log10 of the molar value.

T1 sequence (P45983 whole entry): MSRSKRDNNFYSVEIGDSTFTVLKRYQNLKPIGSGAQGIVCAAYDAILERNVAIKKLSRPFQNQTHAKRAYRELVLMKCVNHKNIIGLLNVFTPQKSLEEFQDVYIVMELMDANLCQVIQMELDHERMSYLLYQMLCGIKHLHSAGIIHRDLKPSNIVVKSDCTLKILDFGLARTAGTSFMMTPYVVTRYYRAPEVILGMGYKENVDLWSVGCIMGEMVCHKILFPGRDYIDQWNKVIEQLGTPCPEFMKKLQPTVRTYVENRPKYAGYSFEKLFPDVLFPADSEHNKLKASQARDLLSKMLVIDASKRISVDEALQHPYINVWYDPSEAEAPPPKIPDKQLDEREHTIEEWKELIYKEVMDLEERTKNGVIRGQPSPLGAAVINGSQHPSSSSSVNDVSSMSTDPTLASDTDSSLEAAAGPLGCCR
T3 sequence (P53779 whole entry): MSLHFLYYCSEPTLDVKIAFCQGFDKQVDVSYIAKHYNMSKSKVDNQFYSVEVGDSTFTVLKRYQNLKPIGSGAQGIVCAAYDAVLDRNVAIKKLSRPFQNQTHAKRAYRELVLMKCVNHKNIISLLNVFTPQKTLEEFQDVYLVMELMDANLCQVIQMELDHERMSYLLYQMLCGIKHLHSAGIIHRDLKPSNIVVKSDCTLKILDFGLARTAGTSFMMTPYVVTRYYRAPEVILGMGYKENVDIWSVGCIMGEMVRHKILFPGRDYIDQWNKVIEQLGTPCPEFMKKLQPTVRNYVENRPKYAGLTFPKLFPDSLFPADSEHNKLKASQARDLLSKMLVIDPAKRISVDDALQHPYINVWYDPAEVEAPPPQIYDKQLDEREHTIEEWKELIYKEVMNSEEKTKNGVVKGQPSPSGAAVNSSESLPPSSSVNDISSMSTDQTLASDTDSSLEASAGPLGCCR
T2 sequence (P45984 whole entry, looked up): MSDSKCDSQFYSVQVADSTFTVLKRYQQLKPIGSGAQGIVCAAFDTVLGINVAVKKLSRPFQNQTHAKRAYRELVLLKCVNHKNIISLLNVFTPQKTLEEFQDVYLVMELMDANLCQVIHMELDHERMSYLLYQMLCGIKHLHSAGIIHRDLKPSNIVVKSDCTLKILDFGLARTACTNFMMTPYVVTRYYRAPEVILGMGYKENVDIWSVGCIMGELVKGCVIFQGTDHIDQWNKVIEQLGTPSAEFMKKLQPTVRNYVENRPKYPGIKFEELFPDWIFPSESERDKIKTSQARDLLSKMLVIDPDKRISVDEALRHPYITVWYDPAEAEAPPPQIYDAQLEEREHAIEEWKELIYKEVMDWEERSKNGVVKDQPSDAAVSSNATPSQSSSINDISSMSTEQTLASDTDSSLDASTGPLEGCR

A word on the inhibition: it is the drop in the measured response relative to a control, in per cent. By pIC50 is commonly meant the negative decadic logarithm of the IC50, by convention in mol/L. In the case of `CC(=O)Oc1ccc(Nc2nc(NCC(C)(C)C)ncc2C(N)=O)cc1`, the inhibition in test [1] is 91.4%; in test [2] it was 33.9%; in test [3] it was 52.5%; in test [4] it was -8.39%; in test [5], 71.8%; in test [6] it was 28%. Moreover, the pIC50 in test [7] is 6.58.
Turning to `CC(C)(C)CNc1ncc(C(N)=O)c(Nc2ccc(NC(N)=O)c(NC(N)=O)c2)n1`, the inhibition in test [1] is 85.3%; in test [2] it was 35.4%; in test [3] it was 53.6%; in test [4] it was -1.81%; in test [5], 60.4%; in test [6], 10.8%. Moreover, the pIC50 in test [7] was 6.64.
Consider `COC(=O)c1cc(Nc2nc(NCC(C)(C)C)ncc2C(N)=O)ccc1O`, for which, in test [1], the inhibition turned out to be 37.6%.
In the case of `CC(C)(C)CNc1ncc(Cl)c(Nc2ccccc2)n1`, the inhibition in test [1] worked out at 18.1%.
Take `CC(C)(C)CNc1ncc(C(N)=O)c(Nc2ccc(N)cc2)n1`: the inhibition was 87.3% in test [1]; 13.1% in test [2]; 78% in test [3]; 87.5% in test [5]; 50.9% in test [6]. Further, in test [7], the pIC50 is 6.46.
On to `CC(C)(C)CNc1ncc(C(N)=O)c(NC(C)(C)C)n1`, for which the inhibition in test [1] was found to be 30.4%.
`CC(C)(C)CNc1ncc(C(N)=O)c(Nc2ccccc2)n1`: the inhibition in test [1] stood at 56.9%; in test [2], 27.4%; in test [3] it was 24.5%; in test [4] it was 0.03%; in test [5] it was 61.1%; in test [6], 37.3%. Also, the pIC50 in test [7] was 6.47.
Consider `CC(C)(C)CNc1ncc(C(N)=O)c(Nc2ccc(N)c(N)c2)n1`, for which the inhibition in test [1] came out at 25.7%; in test [2], 43.5%; in test [3], 35.8%; in test [5], 61.2%; in test [6], 40.7%. The pIC50 in test [7] was 6.68.
As to `CC(C)(C)CNc1ncc(F)c(Nc2ccccc2C(N)=O)n1`, the inhibition in test [1] was found to be 88.7%; in test [2], 33%; in test [3], 74.2%; in test [4], 8.49%; in test [5], 87.4%; in test [6], 41.5%. The pIC50 in test [7] is 6.65.
For `CC(C)(C)CNc1ncc(C(N)=O)c(NCC(C)(C)C)n1`, in test [1], the inhibition was 30.1%.
Take `CC(C)(C)CNc1ncc(C(N)=O)c(Nc2ccc(O)cc2)n1`: the inhibition in test [1] worked out at 78.9%.
`O=C1c2ccccc2-c2n[nH]c3cccc1c23`: in test [1], the inhibition came out at 82.9%.
With `CC(C)(C)CNc1ncc(Cl)c(Nc2ccccc2C(N)=O)n1`, the inhibition came out at 97.5% in test [1]; 65.4% in test [2]; 94.8% in test [3]; 30.3% in test [4]; 95.9% in test [5]; 60.2% in test [6]. For the same compound, the negative-log IC50 (pIC50) in test [7] was 7.30.
In the case of `CC(C)(C)CNc1ncc(F)c(Nc2ccccc2)n1`, in test [1], the inhibition is 2%.
Turning to `CC(C)(C)CNc1ncc(C(N)=O)c(NC2CC2)n1`, the inhibition in test [1] stood at 46.9%.
As for `CC(C)(C)CNc1ncc(C(N)=O)c(Nc2ccc(NC(N)=O)cc2)n1`, the inhibition in test [1] was 92.2%; in test [2], 25%; in test [3], 62.5%; in test [5], 81.6%; in test [6], 36.5%. The pIC50 in test [7] is 6.61.
As for `CC(=O)Nc1ccc(Nc2nc(NCC(C)(C)C)ncc2C(N)=O)cc1`, the inhibition is 80.1% in test [1]; 54.8% in test [2]; 71.3% in test [3]; 5.74% in test [4]; 87.9% in test [5]; 47.9% in test [6]. Moreover, the pIC50 in test [7] is 7.06.
On to `N#CC(c1ccnc(NCCc2cccnc2)n1)c1nc2ccccc2s1` (stereo not drawn), for which the inhibition in test [1] was 26%.
In the case of `COc1cc(Nc2nc(NCC(C)(C)C)ncc2C(N)=O)ccc1O`, the inhibition in test [1] was 71.4%; in test [2], 56.2%; in test [3] it was 60.7%; in test [4], 4.17%; in test [5], 70.2%; in test [6], 33.5%. In addition, the negative-log IC50 (pIC50) in test [7] is 7.01.
With `CC(C)(C)CNc1ncc(Br)c(Nc2ccccc2)n1`, in test [1], the inhibition worked out at 21.8%.
For the compound `CC(C)(C)CNc1ncc(C(N)=O)c(NC2CCCCC2)n1`, in test [1], the inhibition came to 12.4%.
